Assay results reported in ChEMBL document CHEMBL5634141 (Eur J Med Chem, 2023).
Activity calls are given as the source filed them. The calls are words filed in the database; no cut-off is given here.

Legend:
NCI-H358 [1] = assay: Antiproliferative activity against human NCI-H358 cells expressing KRAS G12C mutant assessed as reduction of cell growth by measuring fold decrease in IC50 incubated for 72 hrs in presence of SHP099 by CCK-8 assay; assay type: functional
[2] = Cmax in ICR mouse at 2 mg/kg, iv measured after 24 hrs by LC-MS/MS analysis; assay type: ADME, organism-based; conditions: in vivo
[3] = Toxicity in BALB/c nude mouse xenografted with human MIA PaCa-2 cells assessed as change in body weight at 10 to 30 mg/kg, ip measured after 16 days; assay type: organism-based; conditions: in vivo, 384 h, dose 10-30 mg/kg, time 16 day
MIA PaCa-2 [4] = assay: Induction of apoptosis in human MIA PaCa-2 cells assessed as viable cells at 100 nM incubated for 48 hrs by Annexin V-FITC staining based flow cytometry analysis (reference value: 91.5 %); assay type: functional; conditions: read-out: Activity
[5] = tested on: von Hippel-Lindau disease tumor suppressor/GTPase KRas (Homo sapiens), P01116+P40337 [G12C]; assay: PROTAC activity at VHL/KRAS G12C mutant in human NCI-H358 cells assessed as induction of protein degradation at 100 nM incubated for 48 hrs followed by compound washout and measured after 48 hrs by Western blotting analysis; assay type: cell-based
NCI-H358 [6] = assay: Inhibition of cell migration in human NCI-H358 cells incubated for 12 hrs by wound healing assay; assay type: functional, cell-based; conditions: dose 30-300 nM
[7] = tested on: von Hippel-Lindau disease tumor suppressor/GTPase KRas (Homo sapiens), P01116+P40337 [G12C]; assay: PROTAC activity at VHL/KRAS G12C mutant in human MIA PaCa-2 cells assessed as induction of protein degradation at 300 nM incubated for 24 hrs by Western blotting analysis relative to control; assay type: cell-based
HepG2 = assay: Antiproliferative activity against human HepG2 cells expressing KRAS assessed as inhibition of cell growth incubated for 72 hrs by CCK-8 assay; assay type: functional, cell-based; conditions: HepG2, 72 h
MIA PaCa-2 [8] = assay: Antiproliferative activity against human MIA PaCa-2 cells expressing KRAS G12C mutant assessed as relative cell viability at 30 nM incubated for 72 hrs in presence of MK-2206 by CCK-8 assay; assay type: functional; conditions: read-out: Activity
[9] = tested on: von Hippel-Lindau disease tumor suppressor/GTPase KRas (Homo sapiens), P01116+P40337 [G12C]; assay: (§1) PROTAC activity at VHL/KRAS G12C mutant in human MIA PaCa-2 cells assessed as induction of protein degradation by Western blotting analysis; assay type: cell-based
[10] = target: T1, von Hippel-Lindau disease tumor suppressor/GTPase KRas (Homo sapiens, UniProt P01116+P40337, G12C); assay: as §1; assay type: cell-based
Target sequence in this assay (P01116 whole entry G12C, stated change not applied): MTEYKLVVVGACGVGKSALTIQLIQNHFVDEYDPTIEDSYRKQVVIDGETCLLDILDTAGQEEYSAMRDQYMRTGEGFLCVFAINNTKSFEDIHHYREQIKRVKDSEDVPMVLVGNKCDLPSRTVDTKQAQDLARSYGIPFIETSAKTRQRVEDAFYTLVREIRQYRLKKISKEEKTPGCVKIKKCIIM
Target sequence in this assay (P40337 whole entry, stated change not applied): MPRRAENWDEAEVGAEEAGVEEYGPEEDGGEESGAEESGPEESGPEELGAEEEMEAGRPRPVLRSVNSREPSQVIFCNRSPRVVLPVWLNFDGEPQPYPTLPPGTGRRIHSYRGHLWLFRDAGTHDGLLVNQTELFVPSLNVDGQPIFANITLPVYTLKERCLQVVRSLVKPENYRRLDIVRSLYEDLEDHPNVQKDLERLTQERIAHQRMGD

Calu-1 [11] = assay: Antiproliferative activity against human Calu-1 cells expressing KRAS G12C mutant assessed as relative cell viability at 30 nM incubated for 72 hrs in presence of infigratinib by CCK-8 assay; assay type: functional; conditions: read-out: Activity
MIA PaCa-2 [12] = assay: Induction of cell cycle arrest in human MIA PaCa-2 cells assessed as accumulation of cells at G2/M phase incubated for 48 hrs by propidium iodide staining based flow cytometry analysis; assay type: functional; conditions: dose 30-300 nM
NCI-H358 [13] = assay: Antiproliferative activity against human NCI-H358 cells expressing KRAS G12C mutant assessed as relative cell viability at 30 nM incubated for 72 hrs in presence of naporafenib by CCK-8 assay; assay type: functional; conditions: read-out: Activity
[14] = tested on: von Hippel-Lindau disease tumor suppressor/GTPase KRas (Homo sapiens), P01116+P40337 [G12C]; assay: (§2) PROTAC activity at VHL/KRAS G12C mutant in human NCI-H358 cells assessed as induction of protein degradation incubated for 72 hrs by Western blot analysis; assay type: cell-based
[15] = target: T1, von Hippel-Lindau disease tumor suppressor/GTPase KRas; assay: as §2; assay type: cell-based
Target sequence in this assay (P01116 whole entry G12C, stated change not applied): as the sequence (P01116 whole entry G12C, stated change not applied) above
Target sequence in this assay (P40337 whole entry partner, stated change not applied): as the sequence (P40337 whole entry, stated change not applied) above

Calu-1 [16] = assay: Antiproliferative activity against human Calu-1 cells expressing KRAS G12C mutant assessed as relative cell viability at 30 nM incubated for 72 hrs in presence of selumetinib by CCK-8 assay; assay type: functional; conditions: read-out: Activity
NCI-H358 [17] = assay: Antiproliferative activity against human NCI-H358 cells expressing KRAS G12C mutant assessed as relative cell viability at 30 nM incubated for 72 hrs in presence of MK-2206 by CCK-8 assay; assay type: functional; conditions: read-out: Activity
[18] = Toxicity in BALB/c nude mouse xenografted with human MIA PaCa-2 cells at 10 to 30 mg/kg, ip measured after 16 days; assay type: organism-based; conditions: in vivo, 384 h, dose 10-30 mg/kg, time 16 day
MIA PaCa-2 [19] = assay: Antitumor activity against human MIA PaCa-2 cells xenografted in BALB/c nude mouse assessed as reduction in percentage of Ki67-positive cells at 10 to 30 mg/kg, ip administered for 16 days by immunohistochemical staining analysis; assay type: functional, organism-based; conditions: dose 10-30 mg/kg, time 16.0 day
[20] = tested on: von Hippel-Lindau disease tumor suppressor/GTPase KRas (Homo sapiens), P01116+P40337 [G12C]; assay: PROTAC activity at VHL/KRAS G12C mutant in human MIA PaCa-2 cells assessed as induction of protein degradation at 100 nM incubated for 48 hrs followed by compound washout and measured after 48 hrs by Western blotting analysis; assay type: cell-based
[21] = tested on: von Hippel-Lindau disease tumor suppressor/GTPase KRas (Homo sapiens), P01116+P40337 [G12C]; assay: PROTAC activity at VHL/KRAS G12C mutant in human NCI-H358 cells assessed as induction of protein degradation at 100 nM incubated for 48 hrs by Western blotting analysis relative to control; assay type: cell-based
[22] = tested on: von Hippel-Lindau disease tumor suppressor/GTPase KRas (Homo sapiens), P01116+P40337 [G12C]; assay: PROTAC activity at VHL/KRAS G12C mutant in human MIA PaCa-2 cells assessed as inhibition of ERK phosphorylation at 100 nM incubated for 1 to 8 days by Western blotting analysis; assay type: cell-based; conditions: time 1-8 day
NCI-H358 [23] = assay: Induction of apoptosis in human NCI-H358 cells assessed as necrotic cells at 100 nM incubated for 48 hrs by Annexin V-FITC staining based flow cytometry analysis (reference value: 1.62 %); assay type: functional
NCI-H358 [24] = assay: Synergistic antiproliferative activity against human NCI-H358 cells expressing KRAS G12C mutant assessed as combination index at 30 nM incubated for 72 hrs in presence of […] by CCK-8 assay; assay type: functional
SW837 = assay: Antiproliferative activity against human SW837 cells expressing KRAS G12C mutant assessed as relative cell viability at 30 nM incubated for 72 hrs in presence of infigratinib by CCK-8 assay; assay type: functional; conditions: read-out: Activity
NCI-H358 [25] = assay: Induction of apoptosis in human NCI-H358 cells assessed as necrotic cells at 300 nM incubated for 48 hrs by Annexin V-FITC staining based flow cytometry analysis (reference value: 1.62 %); assay type: functional
[26] = tested on: von Hippel-Lindau disease tumor suppressor/GTPase KRas (Homo sapiens), P01116+P40337 [G12C]; assay: PROTAC activity at VHL/KRAS G12C mutant in human NCI-H358 cells assessed as induction of protein degradation at 100 nM preincubated with MLN4924 for 6 hrs followed by compound addition and measured after 48 hrs by Western blotting analysis; assay type: cell-based
NCI-H358 [27] = assay: Synergistic antiproliferative activity against human NCI-H358 cells expressing KRAS G12C mutant assessed as combination index at 30 nM incubated for 72 hrs in presence of naporafenib by CCK-8 assay; assay type: functional
[28] = tested on: von Hippel-Lindau disease tumor suppressor/GTPase KRas (Homo sapiens), P01116+P40337 [G12C]; assay: PROTACactivity at VHL/KRAS G12C mutant in human NCI-H358 cells assessed as induction of protein degradation by measuring maximal efficacy incubated for 72 hrs by Western blot analysis relative to control; assay type: cell-based
Calu-1 [29] = assay: Antiproliferative activity against human Calu-1 cells expressing KRAS G12C mutant assessed as relative cell viability at 30 nM incubated for 72 hrs in presence of naporafenib by CCK-8 assay; assay type: functional; conditions: read-out: Activity
MIA PaCa-2 [30] = assay: Induction of apoptosis in human MIA PaCa-2 cells assessed as late apoptotic cells at 100 nM incubated for 48 hrs by Annexin V-FITC staining based flow cytometry analysis (reference value: 5.69 %); assay type: functional
MIA PaCa-2 [31] = assay: Induction of apoptosis in human MIA PaCa-2 cells assessed as viable cells at 300 nM incubated for 48 hrs by Annexin V-FITC staining based flow cytometry analysis (reference value: 91.5 %); assay type: functional; conditions: read-out: Activity

For `C=CC(=O)N1CCN(c2nc(=O)n(-c3c(C)ccnc3C(C)C)c3nc(-c4c(F)cccc4OCC4CCN(CCCC(=O)N[C@H](C(=O)N5C[C@H](O)C[C@H]5C(=O)NCc5ccc(-c6scnc6C)cc5)C(C)(C)C)CC4)c(F)cc23)[C@@H](C)C1`, the “fold change (FC)” value (NCI-H358 [1]) was roughly 4, the Cmax [2] was 1170 ng/mL and the Activity [3] was “Non-Toxic”. For the same compound, the viability at 0.1 µM (MIA PaCa-2 [4]) was 75.7%, the Activity [5] was “inactive” and the inhibition (NCI-H358 [6]) was “Dose-Dependent Effect”. The Activity [7] was 100%, the IC50 (HepG2) was greater than 10000 nM and the viability at 0.03 µM (MIA PaCa-2 [8]) was 0.24%. The Activity [9] was “Dose-Dependent Effect”, the DC50 [10] was 28 nM and the viability at 0.03 µM (Calu-1 [11]) was 0.36%. The Activity (MIA PaCa-2 [12]) was “Dose-Dependent Effect”, the viability at 0.03 µM (NCI-H358 [13]) was 0.36% and the Activity [14] was “Dose-Dependent Effect”. For the same compound, the DC50 [15] was 67 nM, the viability at 0.03 µM (Calu-1 [16]) was 0.13% and the viability at 0.03 µM (NCI-H358 [17]) was 0.36%. The Activity [18] was “Non-Toxic”, the Activity (MIA PaCa-2 [19]) was “Active” and the Activity [20] was “inactive”. For the same compound, the Activity [21] was 100%, the Activity [22] was “Active” and the Activity (NCI-H358 [23]) was 1.12%. It also gave a CI (NCI-H358 [24]) of less than 1, a viability at 0.03 µM (SW837) of 0.34% and an Activity (NCI-H358 [25]) of 1.7%. For the same compound, the Activity [26] was “inactive”, the CI (NCI-H358 [27]) was less than 1 and the Emax [28] was greater than 95%. The viability at 0.03 µM (Calu-1 [29]) was 0.44%, the Activity (MIA PaCa-2 [30]) was 13.4% and the viability at 0.3 µM (MIA PaCa-2 [31]) was 66.4%.
